Twelve compounds from patent US20240294551A1 (AMGEN INC., priority 2022, published 2024) can be followed below.

The test system of assay [1] is Phosphorylation of ERK1/2 in AsPC-1 cells. Briefly: Phospho-ERK1/2 MSD Assay. In kind it is cell-based, human. In outline: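 Read-out: MSD electrochemiluminescent detection of phosphorylated ERK1/2 in whole-cell lysates, fitted to a 4-parameter logistic curve for IC50. Prior to lysis, AsPC-1 cells (25,000 per well) received a 2 h compound dose-response at 37 °C.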

The subject of assay [2] is AsPC-1 cells. Briefly: AsPC-1 CTG Assay (CellTiter-Glo cell viability). In kind it is cell-based, human. As to conditions: first value of the cell, read-out: G12D/C/V Cell Proliferation CTG (72 h) AsPC-1. A digest of the protocol: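 IC50 values derive from 4-parameter logistic fits of CellTiter-Glo luminescence, expressed relative to DMSO. Compound dilution series were applied to overnight-seeded AsPC-1 or SW620 cells (RPMI 1640, 10% FBS) for 72 h at 37 °C, 5% CO2.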
For orientation: Cellular ATP, detected with luciferase, serves as a proxy for viable cell number.

Assay [3] deals with MIA PaCa-2 cells. The experiment in a line: MIA PaCa-2 CTG Assay (CellTiter-Glo cell viability). It counts as cell-based, human. As to conditions: Homo sapiens, second value of the cell. As to the method:
MIA PaCa-2 CTG Assay Protocol
MIA PaCa-2 (human pancreatic carcinoma; ATCC CRL-1420) cells were cultured in RPMI 1640 medium containing 10% fetal bovine serum and 1× penicillin/streptomycin/L-glutamine. Cells were seeded in 384-well plates at a density of 1.67E+04 cells/mL and incubated at 37° C., 5% CO2, overnight. Serially-diluted compound or DMSO was added to the cells, and plates were incubated at 37° C., 5% CO2 for 72 h. Cell viability was measured using a CellTiter-Glo® Luminescent Cell Viability Assay kit (Promega) according to the manufacturer's protocol. The luminescence signal of treated samples was normalized to DMSO control, and data were analyzed using a 4-parameter logistic model to calculate IC50 values.

In assay [4] the target is His-tagged KRAS G12D protein (Homo sapiens (Human), UniProt P01116, G12D). Briefly: KRAS G12D TR-FRET Assay. It counts as binding. A digest of the protocol: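 Each incubation ran at room temperature: enzyme with compound for 30 minutes, peptide for one hour, and detection reagents (0.4 nM europium anti-6×His, 5 nM streptavidin-d2) for one hour more. Protein and peptide stocks were each diluted to 20 nM before addition.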
On the technique in general: TR-FRET usually uses a lanthanide donor and a delayed reading to cut background.

Assay [5] addresses GDP-bound KRAS protein (aa 1-169), containing both G12D and C118A amino acid substitutions (Homo sapiens (Human), UniProt P01116, C118A/G12D). The experiment in a line: KRAS G12D Coupled Nucleotide Exchange Assay. In kind it is biochemical.
The mark [6] stands for this setting: Homo sapiens, ASPC1, 2 h, read-out: 2 h p-ERK (AsPC-1 cells), IC50.
The mark [7] stands for this setting: Homo sapiens, ASPC1, 72 h, AsPC-1, 72 h.
Setting [8] is: Mia PaCa-2, 72 h, read-out: G12D/C/V Cell Proliferation CTG (72 h) Mia PaCa-2.
Where [9] appears, read: read-out: KRAS G12D Binding IC50.
Where [10] appears, read: read-out: KRAS G12D Coupled Exchange IC50.
The mark [11] stands for this setting: Homo sapiens, ASPC1, 2 h, read-out: 2 h p-ERK (AsPC-1 cells).
Setting [12] is: TR-FRET, read-out: KRAS G12D Binding.
[13] abbreviates: 2 hours compound pre-incubation, read-out: KRAS G12D Coupled Exchange.
The mark [14] stands for this setting: Homo sapiens, ASPC1, 72 h, AsPC-1 cells (G12D), 72 h.

Like-named read-outs stand apart in the source and are kept apart here.

For `Fc1c2ncc3c(nc(OC[C@@]45CCCN4C[C@H](F)C5)nc13)N1CCC[C@@H](CSCCCCc3c(Cl)cc4[nH]ncc4c3-2)C1` [Example 143], the IC50 in assay [1] (setting [6]) amounted to 109 nM; in assay [2] (setting [7]), 980 nM; in assay [3] (setting [8]), 480 nM.

For `Cc1cc2[nH]ncc2c2c1CCCOC(=O)O[C@@H]1COCCN(C1)c1nc(OC[C@@]34CCCN3C[C@H](F)C4)nc3c(F)c-2ccc13` [Example 192, (26S)-32-fluoro-4-(((2R,7aS)-2-fluorotetrahydro-1H-pyrrolo[1,2-a]pyrrol-7a(5H)-yl)methoxy)-18-methyl-23,25,28-trioxa-1,3,5,14,15-pentaazahexacyclo[24.4.1.1~6,10~.0~2,7~.0~11,19~.0~12,16~]dotriaconta-2,4,6,8,10(32),11,13,16,18-nonaen-24-one], the IC50 in assay [1] (setting [6]) was 21.8 nM; in assay [2] (setting [7]), 375 nM; in assay [3] (setting [8]) it was 67 nM.

Consider `C[C@@]12COCCN(C1)c1nc(OC[C@@]34CCCN3C[C@H](F)C4)nc3c(F)c(ncc13)-c1cccc(Cl)c1CCCOC(=O)O2` [Example 200, (23S)-15-chloro-29-fluoro-4-(((2R,7aS)-2-fluorotetrahydro-1H-pyrrolo[1,2-a]pyrrol-7a(5H)-yl)methoxy)-23-methyl-20,22,25-trioxa-1,3,5,9-tetraazapentacyclo[21.4.1.1~6,10~.0~2,7~.0~11,16~]nonacosa-2,4,6,8,10(29),11,13,15-octaen-21-one], for which the IC50 in assay [4] (setting [9]) is 10 nM; in assay [5] (setting [10]), 4 nM; in assay [1] (setting [6]), 262 nM; in assay [3] (setting [8]), 320 nM.

As for `C[C@@]12COCCN(C1)c1nc(OC[C@@]34CCCN3C[C@H](F)C4)nc3c(F)c(ncc13)-c1cccc3ccc(F)c(c13)CCOC(=O)O2` [Example 304, (16S)-23,32-difluoro-8-(((2R,7aS)-2-fluorotetrahydro-1H-pyrrolo[1,2-a]pyrrol-7a(5H)-yl)methoxy)-16-methyl-14,17,19-trioxa-3,7,9,11-tetraazahexacyclo[20.7.1.1~2,6~.1~11,16~.0~5,10~.0~26,30~]dotriaconta-1(30),2(32),3,5,7,9,22,24,26,28-decaen-18-one], the IC50 in assay [4] (setting [9]) worked out at 15 nM; in assay [5] (setting [10]), 4 nM; in assay [1] (setting [6]), 103 nM; in assay [3] (setting [8]), 380 nM.

In the case of `Fc1c2ncc3c(nc(OC[C@@]45CCCN4C[C@H](F)C5)nc13)N1CCOC[C@H](C1)c1noc(n1)CCCc1c(Cl)cc3[nH]ncc3c1-2` [Example 381], the IC50 was 10.4 nM in assay [1] (setting [11]) and 12 nM in assay [3] (MIA PaCa-2 cells (G12C), 72 h, read-out: G12D/C/V Cell Proliferation CTG (72 h) MIA PaCa-2).

In the case of `Fc1c2ncc3c(nc(OC[C@@]45CCCN4C[C@H](F)C5)nc13)N1CCO[C@@H](COCC[C@@H]3C[C@@H]3c3c(Cl)cc4[nH]ncc4c3-2)C1` [Example 392, (11S,13S,18R)-9-chloro-31-fluoro-25-(((2R,7aS)-2-fluorotetrahydro-1H-pyrrolo[1,2-a]pyrrol-7a(5H)-yl)methoxy)-16,19-dioxa-5,6,22,24,26,30-hexaazaheptacyclo[25.3.1.1~18,22~.0~2,10~.0~3,7~.0~11,13~.0~23,28~]dotriaconta-1(31),2,4,7,9,23,25,27,29-nonaene], the IC50 in assay [4] (setting [12]) was found to be 6 nM; in assay [5] (setting [13]), 4 nM; in assay [1] (setting [11]) it was 31.5 nM; in assay [2] (setting [14]), 291 nM.

Regarding `O[C@]12C[C@@]3(CCCN(C3)c3nc(OC[C@@]45CCCN4C[C@H](F)C5)nc4c(F)c(ncc34)-c3c(c(Cl)cc4[nH]ncc34)CCc3cnc1o3)C2` [Example 396, (1S,3R)-11-chloro-33-fluoro-25-(((2R,7aS)-2-fluorotetrahydro-1H-pyrrolo[1,2-a]pyrrol-7a(5H)-yl)methoxy)-34-oxa-5,14,15,20,24,26,28-heptaazaoctacyclo[26.3.1.1~1,3~.1~4,7~.1~19,23~.0~10,18~.0~13,17~.0~22,27~]pentatriaconta-4,6,10,12,15,17,19(33),20,22,24,26-undecaen-3-ol], the IC50 is 7 nM in assay [4] (setting [12]), 3 nM in assay [5] (setting [13]), 1.2 nM in assay [1] (setting [11]) and 2 nM in assay [2] (setting [14]).

Consider `O=C1CCCCc2c(Cl)cc3[nH]ncc3c2-c2ncc3c(nc(OC[C@@]45CCCN4C[C@H](F)C5)nc3c2F)N2CC[C@@H]3[C@H](C2)N1CC3(F)F` [Example 403, (28R,32R)-18-chloro-27,27,33-trifluoro-4-(((2R,7aS)-2-fluorotetrahydro-1H-pyrrolo[1,2-a]pyrrol-7a(5H)-yl)methoxy)-1,3,5,9,14,15,25-heptaazaheptacyclo[23.5.2.1~6,10~.0~2,7~.0~11,19~.0~12,16~.0~28,32~]tritriaconta-2,4,6,8,10(33),11,13,16,18-nonaen-24-one], for which the IC50 in assay [4] (setting [12]) is 3 nM; in assay [5] (setting [13]), 2 nM; in assay [1] (setting [11]) it was 180 nM; in assay [2] (setting [14]), 639 nM.

As to `CN(C)CC1(COc2nc3c4cnc(c(F)c4n2)-c2c(c(Cl)cc4[nH]ncc24)CCCCO[C@H]2C[C@]4(CCCN3C4)C2)CC1` [Example 405, 1-(1-((((1S,3R)-10-chloro-32-fluoro-4-oxa-13,14,19,23,25,27-hexaazaheptacyclo[25.3.1.1~1,3~.1~18,22~.0~9,17~.0~12,16~.0~21,26~]tritriaconta-9,11,14,16,18(32),19,21,23,25-nonaen-24-yl)oxy)methyl)cyclopropyl)-N,N-dimethylmethanamine], the IC50 amounted to 5 nM in assay [4] (setting [12]), 4 nM in assay [5] (setting [13]), 41.2 nM in assay [1] (setting [11]) and 174 nM in assay [2] (setting [14]).

As for `O[C@@H]1C[C@@H]2COCCCCc3c(Cl)cc4[nH]ncc4c3-c3ncc4c(nc(OC[C@@]56CCCN5C[C@H](F)C6)nc4c3F)N(C1)C2` [Example 406, (17S,19R)-9-Chloro-30-fluoro-24-(((2R,7aS)-2-fluorotetrahydro-1H-pyrrolo[1,2-a]pyrrol-7a(5H)-yl)methoxy)-15-oxa-5,6,21,23,25,29-hexaazahexacyclo[24.3.1.1˜17,21˜.0˜2,10˜.0˜3,7˜.0˜22,27˜]hentriaconta-1(30),2,4,7,9,22,24,26,28-nonaen-19-ol], the IC50 was found to be 21 nM in assay [4] (setting [12]), 4 nM in assay [5] (setting [13]), 261 nM in assay [1] (setting [11]) and 1940 nM in assay [2] (setting [14]).

`O[C@H]1C[C@H]2COCCCCc3c(Cl)cc4[nH]ncc4c3-c3ncc4c(nc(OC[C@@]56CCCN5C[C@H](F)C6)nc4c3F)N(C1)C2` [Example 407, (17R,19S)-9-chloro-30-fluoro-24-(((2R,7aS)-2-fluorotetrahydro-1H-pyrrolo[1,2-a]pyrrol-7a(5H)-yl)methoxy)-15-oxa-5,6,21,23,25,29-hexaazahexacyclo[24.3.1.1˜17,21˜.0˜2,10˜.0˜3,7˜.0˜22,27˜]hentriaconta-1(30),2,4,7,9,22,24,26,28-nonaen-19-ol]: the IC50 in assay [4] (setting [12]) came out at 6 nM; in assay [5] (setting [13]) it was 1 nM; in assay [1] (setting [11]) it was 2.5 nM; in assay [2] (setting [14]), 49 nM.

Take “(15R)-22,31-Difluoro-8-(((2R,7aS)-2-fluorotetrahydro-1H-pyrrolo[1,2-a]pyrrol-7a(5H)-yl)methoxy)-27-hydroxy-15-methyl-16-oxa-3,7,9,11-tetraazahexacyclo[19.7.1.1˜2,6˜.1˜11,15˜0.0˜5,10˜.0˜25,29˜]hentriaconta-1(28),2(31),3,5,7,9,21,23,25(29),26-decaen-17-one bis(2,2,2-trifluoroacetate) [Example 43]”: the IC50 in assay [4] (setting [9]) came out at 4 nM; in assay [5] (setting [10]) it was 2 nM; in assay [1] (2 h, read-out: 2 h p-ERK (AsPC-1 cells), IC50), 13 nM; in assay [2] (AsPC-1, 72 h) it was 92 nM.
